Assay results reported in PMC7767178 (International Journal of Molecular Sciences, 2020).
“And” between values parts separate entries of the source, which are not always exact repeats. Identical values can stand only once. Like-named read-outs stand apart in the source and are kept apart here. Positions of bridges follow the written chain, without caps; N, C: chain ends. Residues, ends and D or L forms follow the SMILES beside them.

Assays:
[1] = system: S. hyicus 437-2; assay type: cell-based
[2] = system: A. veronii ACCC61732; assay: ATP release, BacTiter-Glo; assay type: cell-based; settings: 8×, 16× and 32× MIC, 60 min, 37 °C, luminescence, n = 3
Protocol: The assay was performed for three biological replicates at 37 °C, with luminescence recorded using a Tecan Infinite M1000 Pro plate reader. The fold reduction of ATP was calculated as: Fold reduction ATP = 1 − (Ltreat − Lmedia/Lcontrol − Lmedia), where Ltreat is the luminescence of treated cells, Lmedia is the luminescence of MHB without cells, and Lcontrol is the luminescence of untreated cells. Resultant graphs show mean (n = 3) and SEM for each data point, prepared in Prism 7 [46].

[3] = system: mouse erythrocytes; assay: Hemolysis; assay type: cell-based; settings: 256 μg/mL; 8% mouse erythrocyte suspension, 37 °C, 1 h, absorbance 540 nm
Protocol: To determine the hemolysis of peptides, eyeball blood was collected from 6-week-old SPF ICR mice. The blood was centrifuged at 4 °C for 10 min (1500 rpm), washed three times with 0.9% physiological saline, and diluted to 8% suspension. […] Red blood cell suspensions and peptide solutions (100 μL) were mixed in 96-well plates, centrifuged at 4 °C for 5 min (1500 rpm), and incubated at 37 °C for 1 h. The supernatant was added into a 96-well plate and the UV absorbance was measured at 540 nm using a microplate reader. Physiological saline and 0.1% Triton X-100 were used as 0% and 100% hemolytic controls, respectively. The hemolytic ratio was calculated as follows: Hemolysis (%) = [(Abspeptide − Abssaline)/(Abs0.1%Triton X-100 − Abssaline)] × 100% [38].

[4] = system: A. veronii ACCC61732 biofilms; assay: Mouse model of catheter-associated biofilm infection, bacteria in catheter; assay type: in vivo, ICR mice; settings: 5 μmol/kg peptide or CIP 24 h after catheter implantation, catheters collected after seven days, six mice per group
Protocol: Briefly, the catheter was cut into 1 cm segments; each piece was sterilized with 70% ethanol and then dried by air. Bacterial biofilms were developed on the catheter by placing individual segments into tubes containing 1.0 mL of a cell suspension (1 × 10^8 CFU/mL) in TSB. After incubation for 24 h at 37 °C, colonized catheters were recovered aseptically and rinsed with PBS to remove unbound bacteria. ICR female mice (20 ± 5 g) were anesthetized with isoflurane; the flanks were shaved and the skin was cleansed with alcohol. […] The incision was then covered with intact skin and closed with surgical suture line and the skin was disinfected. […] The untreated mice were used as the negative control and the mice with sterile catheter were used as the blank control. The mice were anesthetized and sacrificed after seven days. The catheters in the back of the mice were collected and thoroughly shaken in sterile PBS.

[5] = in vitro; settings: mouse, 25% mouse serum
[6] = system: A. veronii; assay: MIC, range over strains; assay type: cell-based; settings: range over the strains of Table 2
From the text: (§1) All experiments were repeated three times.

[7] = system: Escherichia coli; assay: MIC, range over strains; assay type: cell-based; settings: range over the strains of Table 2
From the text: as §1

[8] = system: IL-10; assay: Serum cytokine, ELISA, peritonitis model; assay type: in vivo; settings: 5 μmol/kg, 24 h after treatment, range over mice
Protocol: (§2) Sera and organs (livers, kidneys, spleens, and lungs) were collected from the mice at 24 h post-treatment. The organs were homogenized in sterile PBS to evaluate bacterial translocation by colony counting. The levels of cytokines (TNF-α, IL-1β, IL-6, and IL-10) in sera were detected using the ELISA kits.

[9] = system: TNF-α; assay: Serum cytokine, ELISA, peritonitis model; assay type: in vivo; settings: 5 μmol/kg, 24 h after treatment, range over mice
Protocol: as §2

[10] = system: IL-1β; assay: Serum cytokine, ELISA, peritonitis model; assay type: in vivo; settings: 5 μmol/kg, 24 h after treatment, range over mice
Protocol: as §2

[11] = system: IL-6; assay: Serum cytokine, ELISA, peritonitis model; assay type: in vivo; settings: 5 μmol/kg, 24 h after treatment, range over mice
Protocol: as §2

[12] = system: A. veronii ACCC61732 genomic DNA; assay: CD spectra of genomic DNA with peptides; assay type: binding; settings: mass ratios 2.5 and 10.0, 10 min, room temperature
Protocol: CD spectra were performed to examine the secondary structure of genomic DNA from A. veronii ACCC61732 after incubation with peptides. […] The mixtures were loaded into a cuvette of 1.0-mm path length and scanned from 190 to 330 nm at 25 °C using a Pistar π-180 CD spectrometer (Applied Photophysics Ltd., Surry, UK).

[13] = system: A. veronii ACCC61732; assay: Inner membrane permeability, PI staining, flow cytometry; assay type: cell-based
Protocol: To analyze effects of peptides on the inner membrane, A. veronii ACCC61732 cells were cultured to mid-log phase at 37 °C in MHB medium, washed thrice with PBS, and resuspended in the PBS buffer to 1 × 10^8 CFU/mL. […] After fixation with PI, the samples were detected by a fluorescent inverted microscope and FACS Calibur Flow Cytometer (BD, San Jose, CA, USA), respectively. Cell Quest Pro software (BD, San Jose, CA, USA) was used for the data analysis.

[14] = system: Salmonella; settings: range over the strains of Table 2
[15] = system: trypsin
[16] = system: A. veronii ATCC35624; assay type: cell-based
[17] = system: S. aureus ATCC546
Protocol: (§3) Briefly, the tested strains including Gram-negative bacteria, Gram-positive bacteria, and fungi were cultured to the logarithmic growth phase, diluted to 10^5 CFU/mL, and added into 96-well plates (90 μL/well). Two-fold serial dilutions of peptides or antibiotics dissolved in PBS were added to each well (10 μL/well). […] All experiments were repeated three times.

[18] = system: S. aureus ATCC25923
Protocol: as §3

[19] = system: Aeromonas veronii ACCC61732
Protocol: as §3

[20] = system: Pseudomonas aeruginosa CICC21630
Protocol: as §3

[21] = S. hyicus 437-2 (clinical isolate, pig farm), broth dilution, 37 °C, 16–18 h, three experiments
[22] = A. veronii ATCC35624, broth dilution, 37 °C, 16–18 h, three experiments
[23] = S. aureus ATCC546, broth dilution, 37 °C, 16–18 h, three experiments
[24] = S. aureus ATCC25923, broth dilution, 37 °C, 16–18 h, three experiments
[25] = Aeromonas veronii ACCC61732 (MDR), broth dilution, 37 °C, 16–18 h, three experiments
[26] = Pseudomonas aeruginosa CICC21630, broth dilution, 37 °C, 16–18 h, three experiments

| SMILES | MIC [1] [µM] | MIC [1, 21] [µg/mL] | hemolysis [3] [%] | decrease of bacterial cells in the catheter [4] [%] | remaining at 2 h [5] [%] | remaining at 4.5 h [5] [%] | MIC values against A. veronii [6] [µM] | MIC values against Escherichia coli [7] [µM] | serum level of IL-10 [8] [pg/mL] | serum level of TNF-α [9] [pg/mL] | serum level of IL-1β [10] [pg/mL] | serum level of IL-6 [11] [pg/mL] | effect on CD spectrum of genomic DNA [12] | Permeability (PI-positive cells) ([13]; 1× MIC, 0.5 h) [%] | Permeability (PI-positive cells) ([13]; 1× MIC, 2 h) [%] | Permeability (PI-positive cells) ([13]; 2× MIC, 0.5 h) [%] | Permeability (PI-positive cells) ([13]; 2× MIC, 2 h) [%] | Permeability (PI-positive cells) ([13]; 4× MIC, 0.5 h) [%] | Permeability (PI-positive cells) ([13]; 4× MIC, 2 h) [%] | MIC values against Salmonella [14] [µM] | further results |
| --- | --- | --- | --- | --- | --- | --- | --- | --- | --- | --- | --- | --- | --- | --- | --- | --- | --- | --- | --- | --- | --- |
| CC(C)[C@H]1NC(=O)CNC(=O)[C@@H](CC(N)=O)NC(=O)[C@@H](CCCNC(=N)N)NC(=O)[C@@H](Cc2ccc(O)cc2)NC(=O)[C@@H](C(C)C)NC(=O)[C@H](NC(=O)[C@H](NC(=O)[C@@H](CC(N)=O)NC(=O)[C@@H](Cc2c[nH]c3ccccc23)NC(=O)[C@@H](C)NC(=O)[C@@H](Cc2ccccc2)NC(=O)CN)C(C)C)CSSC[C@H](C(=O)N[C@H](Cc2c[nH]cn2)C(=O)N[C@H](CCCNC(=N)N)C(=O)N[C@H](CCCNC(=N)N)C(=O)N[C@H](C)C(=O)N[C@H](CC(N)=O)C(N)=O)NC(=O)[C@@H](C(C)C)NC(=O)[C@@H](CCCNC(=N)N)NC1=O [DN6NH2] | 3.23 | 8 | 1.46 | 71.55 | 92.7 | 78.4 | 1.62 to 25.86 | 1.62 to 3.23 | 15.94 to 25.46 | 40.02 to 66.20 | 8.17 to 25.94 | 104.48 to 115.43 | elliptic intensity of the positive band declined | 0 | 3.42 | 9.16 | 9.83 | 41.93 | 33.73 | 0.81 to 6.46 | ATP release [2]: 84.34–86.15%; structure after trypsin treatment, MS analysis [15]: not affected by trypsin; MIC [16, 22]: 64 µg/mL; MIC ([16]; ATCC35624): 25.86 µM; MIC ([17]; ATCC546): 6.46 µM; MIC [17, 23]: 16 µg/mL; MIC ([18]; ATCC25923): 3.23 µM; MIC [18, 24]: 8 µg/mL; MIC [19, 25]: 4 μg/mL and 1.62 μM; MIC ([20]; CICC21630): 3.23 µM; MIC [20, 26]: 8 µg/mL |
| CC(C)[C@H](N)C(=O)N[C@@H](Cc1ccccc1)C(=O)N[C@@H](C)C(=O)N[C@@H](Cc1c[nH]c2ccccc12)C(=O)N[C@@H](CC(N)=O)C(=O)N[C@H](C(=O)N[C@H]1CSSC[C@@H](C(=O)N[C@@H](Cc2c[nH]cn2)C(=O)N[C@@H](CCCNC(=N)N)C(=O)N[C@@H](CCCNC(=N)N)C(=O)N[C@@H](C)C(=O)N[C@@H](CC(N)=O)C(N)=O)NC(=O)[C@H](C(C)C)NC(=O)[C@H](CCCNC(=N)N)NC(=O)[C@H](C(C)C)NC(=O)[C@H](C(C)C)NC(=O)[C@H](CC(N)=O)NC(=O)[C@H](CCCNC(=N)N)NC(=O)[C@H](Cc2ccc(O)cc2)NC(=O)[C@H](C(C)C)NC1=O)C(C)C [V112N6NH2] (H-VFAWNVCVYRNVVRVCHRRAN-NH2; disulfide 7-16 (inferred)) | 12.5 | 32 | 4.59 | 55.29 | 81.4 | 32.1 | 6.25 to 12.51 | 1.56 to 3.13 | 16.48 to 19.60 | 52.05 to 59.01 | 16.41 to 24.86 | 133.08 to 150.00 | do not affect the double helix of genomic DNA | 0 | 1.8 | 0 | 5.67 | 4.28 | 23.93 | 0.78 to 6.25 | remaining at 6 h [5]: 19.1%; MIC after trypsin treatment ([15]; pH 8): lost their activity; MIC [16, 22]: 16 µg/mL; MIC ([16]; ATCC35624): 6.25 µM; MIC ([17]; ATCC546): 6.25 µM; MIC [17, 23]: 16 µg/mL; MIC ([18]; ATCC25923): 12.5 µM; MIC [18, 24]: 32 µg/mL; MIC [19]: 6.25 µM; MIC [19, 25]: 16 µg/mL; MIC ([20]; CICC21630): 12.5 µM; MIC [20, 26]: 32 µg/mL |
